Results: publication PMC9658052, “Virtual Screening and Biological Activity Evaluation of New Potent Inhibitors Targeting Hexokinase-II” (Molecules, 2022)
Where two headings read alike, the source gives them in different places.

Assays:
HK-II = conditions: cited from earlier work
HeLa cells = assay: MTT cytotoxicity assay, HeLa; assay type: cell-based; conditions: Homo sapiens, 48 h, read-out: IC50 (toxicity) Hela
Experimental: (§1) Initially, we adopted the MTT assay to screen the cytotoxicity of all compounds toward three different types of cancer cell lines (HeLa, HepG 2 and A549). […] The chemical structures of the selected compounds are depicted in Figure 2.
(§2) HeLa, Hep G2, and A549 cells were purchased from the Shanghai Institute of Biochemistry and Cell Biology, Chinese Academy of Sciences. All cells were cultured in DMEM with 100 units/mL penicillin/streptomycin, 2 mM glutamine, and 10% FBS in a carbon dioxide atmosphere at 37 °C.
(§3) Cytotoxicity was quantified using a standard MTT assay, which is widely used in evaluating cell proliferation and screening for anticancer drugs. Briefly, following 7 × 10^3 cells incubating in 96-well plates for 48 h filled with DMEM medium supplemented with 10% fetal bovine serum (FBS) containing different concentrations of samples, 10 μL/well of MTT (5 mg/mL) was added. After 4 h of incubation at 37 °C, 100 μL of extraction buffer containing 5% iso-butanol, 0.1% HCl, and 10% SDS was added, and then the cells were incubated overnight. As controls, cells were treated with 0.1% (v/v) DMSO alone. The cell viability was calculated by the absorbance (570 nm) of each well obtained using a microplate reader (Thermo Scientific Multiskan GO, Vantaa, Finland).

HepG 2 cells = assay: MTT cytotoxicity assay, HepG 2; assay type: cell-based; conditions: Homo sapiens, HepG2, 48 h, read-out: IC50 (toxicity) HepG 2
Experimental: as §1, §2, §3

A549 cells = assay: MTT cytotoxicity assay, A549; assay type: cell-based; conditions: Homo sapiens, 48 h, read-out: IC50 (toxicity) A549
Experimental: as §1, §2, §3

[1] = design: method as in PMID 20215500, PMID 16044218; conditions: mice, dose range from 500 mg/Kg to 2000 mg/Kg; cited from earlier work
Hexokinase-II enzyme = target: T1, Hexokinase-II enzyme (Homo sapiens, UniProt P52789); assay: Hexokinase-II inhibitor screening kit (enzyme activity); assay type: biochemical; conditions: compound 1 to 128 μM
T1 construct: purchased Abcam ab211114
T1 sequence (P52789 1-917): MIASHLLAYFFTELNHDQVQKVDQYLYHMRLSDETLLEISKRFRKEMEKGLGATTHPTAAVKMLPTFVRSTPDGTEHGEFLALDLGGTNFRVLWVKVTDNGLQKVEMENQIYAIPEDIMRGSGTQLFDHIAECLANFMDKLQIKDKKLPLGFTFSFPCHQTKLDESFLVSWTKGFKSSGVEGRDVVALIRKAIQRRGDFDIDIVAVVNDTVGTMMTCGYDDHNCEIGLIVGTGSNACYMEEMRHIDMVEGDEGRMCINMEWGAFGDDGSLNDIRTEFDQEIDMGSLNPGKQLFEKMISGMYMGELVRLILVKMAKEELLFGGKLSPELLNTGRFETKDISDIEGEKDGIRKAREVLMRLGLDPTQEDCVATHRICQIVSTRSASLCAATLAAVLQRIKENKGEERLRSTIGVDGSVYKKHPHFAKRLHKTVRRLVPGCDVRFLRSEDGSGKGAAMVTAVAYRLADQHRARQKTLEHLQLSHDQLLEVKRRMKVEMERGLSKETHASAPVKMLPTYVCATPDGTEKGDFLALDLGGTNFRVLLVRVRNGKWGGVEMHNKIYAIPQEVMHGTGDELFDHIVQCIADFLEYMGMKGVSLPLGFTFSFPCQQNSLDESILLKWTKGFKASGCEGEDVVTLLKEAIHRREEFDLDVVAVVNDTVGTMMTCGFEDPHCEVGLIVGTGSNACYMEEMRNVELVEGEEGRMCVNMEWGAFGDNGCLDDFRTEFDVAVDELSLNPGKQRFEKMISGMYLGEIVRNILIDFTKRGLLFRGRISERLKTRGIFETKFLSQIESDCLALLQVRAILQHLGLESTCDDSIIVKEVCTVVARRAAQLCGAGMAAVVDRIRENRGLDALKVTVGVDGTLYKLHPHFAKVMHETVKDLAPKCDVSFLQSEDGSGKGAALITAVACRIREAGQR
Experimental: Since nine compounds display the highest cytotoxicity to three different cancer cells, we then verified the effects of the compounds on Hexokinase-II activity.
Figure 3 Inhibition of compounds 4244-3659 and K611-0094 on Hexokinase-II activity. […] All data were expressed as mean ± SE from three independent experiments. ** p < 0.01 vs. the control groups.
The Hexokinase-II activity was tested via a Hexokinase-II inhibitor screening kit (Abcam, Cambridge, UK, ab211114), and all experiments were carried out following the manufacturer’s instructions. […] HK assay buffer was treated as negative control, bromopyruvic acid was used for positive controls, and DMSO was used as a solvent control. The value of OD at 450 nm at 15 min and 25 min was recorded. IC50 values were calculated in GraphPad Prism 5.

[2] = 5 min at 25 °C preincubation, read-out: EC50, inhibitory effect on HK-II enzyme activity
[3] = read-out: IC50 on Hexokinase-II enzyme

Molecule | IC50 (HeLa cells) [µM] | IC50 (HepG 2 cells) [µM] | IC50 (A549 cells) [µM] | IC50 (Hexokinase-II enzyme; [2]) [µM] | further results
€-4-Nitro-N′-(2,3,4-trihydroxybenzylidene) |  |  |  |  | IC50 (HK-II; read-out: enzyme activity (HK2 inhibitor)): 0.53 ± 0.13 µM
CC(=O)c1c(C)[nH]c2ccc(OC[C@@H](O)CNCCc3ccccc3)cc12 [D016-0099] | 48.5 ± 1.2 | 44.2 ± 0.6 | 50.4 ± 0.3 |  | 
CCOC(=O)c1c(C)n(C)c2ccc(OC[C@H](O)CN[C@H](CC)CO)cc12 [6913-0012] | 51.9 ± 1.5 | 59 ± 0.2 | 62.6 ± 0.7 |  | 
O=CC[C@@H](O)[C@H](O)[C@H](O)CO [2-Deoxyglucose (2-DG), 2-Deoxyglucose] |  |  |  |  | therapeutic effect of a single agent [1]: no significant therapeutic effect
O=C(N/N=C/c1ccc(Cl)c(Cl)c1)c1cc(O)c(O)c(O)c1 [AK-968/41922716] | 28.5 ± 1.9 | 40 ± 0.2 | 31 |  | 
Nc1nc(SCC(=O)Nc2cccc([N+](=O)[O-])c2)sc1C(=O)Nc1nccs1 [K611-0094] | 47.8 ± 0.6 | 57.9 ± 1.7 | 48.8 ± 1.2 | 45 ± 1.1 | IC50 (Hexokinase-II enzyme; [3]): 45 ± 1.1 µM
O=C(O)C(=O)CBr [3-Bromopyruvate (3-BrPA), 3-Bromopyruvate] |  |  |  |  | inhibitory action against HK-II (HK-II): moderate inhibitory action
CN(C)C(=N)N=C(N)N [metformin] |  |  |  |  | IC50 (HK-II; weak inhibitory effect, read-out: IC50 against HK-II): > 10000 µM
CN1C(=O)[C@](O)(CC(=O)c2cc(O)ccc2O)c2ccccc21 [4244-3659] | 62.1 ± 2 | 62.5 ± 2.1 | 54.6 ± 2.6 | 17.5 ± 1.4 | IC50 (Hexokinase-II enzyme; [3]): 17.5 ± 1.4 µM
O[C@H](CNCc1ccccc1)COc1cccc2ccccc12 [AO-423/13128074] | 27.7 ± 0.6 | 30 ± 1.4 | 38.6 ± 0.8 | > 128 | 
Cc1ccc(C(C)C)c(OC[C@H](O)CNCc2ccccc2)c1 [AP-124/43383769] | 25.1 ± 0.9 | 23.3 | 36.5 ± 0.4 | 104 ± 1.1 | 
O=C(CSc1nc2c(sc3ccccc32)c(=O)n1Cc1cccnc1)Nc1ccc(O)c(O)c1 [K263-0793] | 22.4 ± 1.4 | 22.1 ± 0.9 | 27.1 ± 1.4 | > 128 | 
